Like-named read-outs stand apart in the source and are kept apart here.
Assays:
NDM-1 = NDM-1 (Klebsiella pneumoniae, UniProt C7C422); experiment: biochemical; format: biochemical; details: read-out: NDM-1 IC50
Protocol: Enzyme Activity: Determination of IC50
The Class B enzyme activities were measured in the presence of the test inhibitor in a fluorescence assay against a commercially available substrate consisting of a cephalosporin core linking 7-hydroxycoumarin to fluorescein (CCF2-FA). The enzyme (NDM-1, IMP-1 or VIM-1) and the substrate were diluted in 100 mM KH2PO4 buffer (pH 7) containing 0.005% Tween-20 and 10 μM ZnSO4. […] The test inhibitor was dissolved in dimethylsulfoxide and diluted 1:50 in the assay, resulting in a final concentration range of 20 uM to 0.00063 uM. In a 384-well microplate, the test inhibitor was incubated with the metallo-β-lactamase enzyme and the substrate for 2 hours at 25° C. Fluorescence at 460 nm following excitation at 405 nm was measured. The IC50 value was determined from semi-logarithmic plots of enzyme inhibition versus inhibitor concentration, with a curve generated using a 4-parameter fit.

VIM-1 = VIM-1 (Pseudomonas aeruginosa (strain ATCC 15692 / DSM 22644 / CIP 104116 / JCM 14847 / LMG 12228 / 1C / PRS 101 / PAO1), UniProt A0A0F7KYQ8); experiment: Enzyme activity: determination of IC50, fluorescence assay with CCF2-FA substrate (VIM-1); format: biochemical
[1] = test system: Serratia marcescens expressing IMP-1 (CL5741); experiment: Antibiotic potentiation activity: synergistic concentration (MITC95) with imipenem, OD600 growth; format: cell-based; details: for Serratia marcescens expressing IMP-1 (CL5741) MITC95: concentration giving 95% inhibition of bacterial growth
How it was run: (§1)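 Spectrophotometric growth readings were taken following 22–24 h at 35 °C. Before that, organisms in 1.1× CAMHB were mixed with imipenem, used at 4 μg/ml in assay, and test compound.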

[2] = test system: Klebsiella pneumoniae expressing VIM-1 (IHMA599644); experiment: as above; format: cell-based; details: for Klebsiella pneumoniae expressing VIM-1 (IHMA 599644) MITC95: concentration giving 95% inhibition of bacterial growth
How it was run: as §1

[3] = test system: Escherichia coli expressing NDM-1 (CLB30016); experiment: as above; format: cell-based; details: for Escherichia coli expressing NDM-1 (CLB 30016) MITC95: concentration giving 95% inhibition of bacterial growth
How it was run: as §1

IMP-1 = IMP-1 (Serratia marcescens, UniProt P52699); experiment: biochemical; format: biochemical; details: read-out: IMP-1 IC50
[4] = NDM-1 enzyme, CCF2-FA substrate
[5] = VIM-1 enzyme, CCF2-FA substrate, read-out: VIM-1 IC50
[6] = Serratia marcescens CL5741 (IMP-1), 95% growth inhibition
[7] = Klebsiella pneumoniae IHMA599644 (VIM-1), 95% growth inhibition
[8] = (CLB30016, NDM-1), 95% growth inhibition
[9] = IMP-1 enzyme, CCF2-FA substrate
[10] = NDM-1 enzyme, CCF2-FA fluorescence assay
[11] = VIM-1 enzyme, CCF2-FA fluorescence assay, read-out: VIM-1 IC50
[12] = Serratia marcescens expressing IMP-1 (CL5741), 95% growth inhibition
[13] = Klebsiella pneumoniae expressing VIM-1 (IHMA599644), 95% growth inhibition
[14] = Escherichia coli expressing NDM-1 (CLB30016), 95% growth inhibition
[15] = IMP-1 enzyme, CCF2-FA fluorescence assay
[16] = fluorescence assay with CCF2-FA substrate
[17] = fluorescence assay with CCF2-FA substrate, read-out: VIM-1 IC50
[18] = CL5741 (IMP-1), 95% inhibition of bacterial growth
[19] = IHMA599644 (VIM-1), 95% inhibition of bacterial growth
[20] = CLB30016 (NDM-1), 95% inhibition of bacterial growth

Sequence of IMP-1 (P52699 whole entry, looked up): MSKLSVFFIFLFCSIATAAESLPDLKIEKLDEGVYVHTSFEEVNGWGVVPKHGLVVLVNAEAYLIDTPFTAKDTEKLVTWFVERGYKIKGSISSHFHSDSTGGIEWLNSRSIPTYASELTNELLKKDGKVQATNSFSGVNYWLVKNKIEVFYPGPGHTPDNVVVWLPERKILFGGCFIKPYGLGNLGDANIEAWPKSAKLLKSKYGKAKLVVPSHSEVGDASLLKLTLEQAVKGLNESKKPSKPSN
Sequence of NDM-1 (C7C422 whole entry, looked up, species assumed): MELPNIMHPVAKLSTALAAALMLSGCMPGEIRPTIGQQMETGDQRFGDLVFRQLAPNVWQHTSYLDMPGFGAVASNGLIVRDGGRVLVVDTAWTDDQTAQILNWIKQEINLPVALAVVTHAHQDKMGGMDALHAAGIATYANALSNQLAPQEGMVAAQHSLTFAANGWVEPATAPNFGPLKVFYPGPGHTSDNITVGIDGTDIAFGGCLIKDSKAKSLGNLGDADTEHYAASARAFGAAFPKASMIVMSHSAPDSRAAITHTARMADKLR

| SMILES | IC50 (NDM-1; [4]) [nM] | IC50 (VIM-1; [5]) [nM] | Serratia marcescens MITC95 [1, 6] [µM] | Klebsiella pneumoniae MITC95 [2, 7] [µM] | Escherichia coli MITC95 [3, 8] [µM] | IC50 (IMP-1; [9]) [nM] | IC50 (NDM-1; [10]) [nM] | Serratia marcescens MITC95 [1, 12] [µM] | Klebsiella pneumoniae MITC95 [2, 13] [µM] | Escherichia coli MITC95 [3, 14] [µM] | IC50 (IMP-1; [15]) [nM] | further results |
| --- | --- | --- | --- | --- | --- | --- | --- | --- | --- | --- | --- | --- |
| CS(=O)(=O)C1CN(c2ccc(-c3cccc(S(N)(=O)=O)c3-c3nnn[nH]3)cn2)C1 [Example 631, 3-[6-(3-methylsulfonylazetidin-1-yl)-3-pyridyl]-2-(1H-tetrazol-5-yl)benzenesulfonamide] | 8.25 | 110 | 6.25 | 25 | 1.953 | 39.9 | – | – | – | – | – | – |
| Nc1ccc(-c2ccc(C(F)(F)F)c(S(N)(=O)=O)c2-c2nnn[nH]2)nc1 [Example 562, 3-(5-aminopyridin-2-yl)-2-(1H-tetrazol-5-yl)-6-(trifluoromethyl)benzenesulfonamide] | 5 | 2.35 | 0.3906 | 3.125 | 0.5859 | 7.55 | – | – | – | – | – | – |
| CN1CCN(Cc2ccc(-c3cccc(S(N)(=O)=O)c3-c3nnn[nH]3)cc2)CC1 [Example 329, 4′-((4-methylpiperazin-1-yl)methyl)-2-(1H-tetrazol-5-yl)-[1,1′-biphenyl]-3-sulfonamide] | – | – | – | – | – | – | 8.26 | 1.563 | 200 | 0.7813 | 87.1 | IC50 (VIM-1; [11]): 683 nM |
| CC(NCc1ccc(-c2cccc(S(N)(=O)=O)c2-c2nnn[nH]2)cc1)C(=O)O (stereo not drawn) [Example 358, N-{[3′-sulfamoyl-2′-(1H-tetrazol-5-yl)biphenyl-4-yl]methyl}alanine] | – | – | – | – | – | – | 32.8 | 4.688 | 75 | 3.125 | 288 | IC50 (VIM-1; VIM-1 IC50, VIM-1 enzyme, CCF2-FA fluorescence assay): 387 nM |
| CC(C)c1ccc(C(F)(F)F)c(S(N)(=O)=O)c1-c1nnn[nH]1 [Example 488, 3-isopropyl-2-(1H-tetrazol-5-yl)-6-(trifluoromethyl)benzenesulfonamide] | – | – | – | – | – | – | 7.9 | 0.7813 | 4.688 | 1.563 | 18.8 | IC50 (VIM-1; [11]): 3.44 nM |
| NS(=O)(=O)c1c(C(F)(F)F)ccc([C@H]2CC[C@H](NCC3CCNCC3)CC2)c1-c1nnn[nH]1 [Example 680, 3-{4-[(piperidin-4-ylmethyl)amino]cyclohex-yl}-2-(1H-tetrazol-5-yl)-6-(trifluoromethyl)benzene sulfonamide] | 41.4 | 5.16 | 3.125 | 6.25 | 1.563 | 86.6 | – | – | – | – | – | – |
| NS(=O)(=O)c1cccc(C2CCCCC2)c1-c1nnn[nH]1 [Example 151, 3-cyclohexyl-2-(1H-tetrazol-5-yl)benzenesulfonamide] | – | – | – | – | – | – | – | – | – | – | – | IC50 (NDM-1; [16]): 1.25 nM; IC50 (VIM-1; [17]): 31.5 nM; Serratia marcescens expressing IMP-1 (CL5741) MITC95 [1]: 1.563 µM; Klebsiella pneumoniae expressing VIM-1 (IHMA 599644) MITC95 [2]: 37.5 µM; Escherichia coli expressing NDM-1 (CLB 30016) MITC95 [3]: 1.172 µM; IC50 (IMP-1; [16]): 31.8 nM |
| NS(=O)(=O)c1c(CCCCCCO)ccc(CCCCCCO)c1-c1nn[nH]n1 [Example 543, 3,6-Bis(6-hydroxyhexyl)-2-(2H-tetrazol-5-yl)benzenesulfonamide] | 2.62 | 3.21 | 12.5 | >200 | 50 | 1.16 | – | – | – | – | – | – |
| NS(=O)(=O)c1c(C(F)(F)F)ccc([C@H]2CC[C@H](N[C@H]3CC[C@H]4CCN[C@H]4C3)CC2)c1-c1nnn[nH]1 [Example 679, 3-{4-[(3aS,6S,7aS)-octahydro-1H-indol-6-ylamino]cyclohexyl}-2-(1H-tetrazol-5-yl)-6-(trifluoromethyl)benzene sulfonamide] | 19.8 | – | 3.125 | 50 | 1.563 | 75.3 | – | – | – | – | – | IC50 (VIM-1; VIM-1 IC50, VIM-1 enzyme, CCF2-FA substrate): 21.2 nM |
| Nc1nc2c(F)cc(-c3ccc(C(F)(F)F)c(S(N)(=O)=O)c3-c3nnn[nH]3)cc2s1 [Example 743, 3-(2-amino-4-fluoro-1,3-benzothiazol-6-yl)-2-(1H-tetrazol-5-yl)-6-(trifluoromethyl)benzenesulfon-amide] | – | – | – | – | – | – | – | – | – | – | – | IC50 (NDM-1; [16]): 0.409 nM; IC50 (VIM-1; [17]): 0.147 nM; Serratia marcescens MITC95 [1, 18]: 6.25 µM; Klebsiella pneumoniae MITC95 [2, 19]: 6.25 µM; Escherichia coli MITC95 [3, 20]: 3.125 µM; IC50 (IMP-1; [16]): 0.901 nM |
| Nc1nc2ccc(-c3cccc(S(N)(=O)=O)c3-c3nnn[nH]3)cc2s1 [Example 417, 3-(2-amino-1,3-benzothiazol-6-yl)-2-(1H-tetrazol-5-yl)benzenesulfonamide] | – | – | – | – | – | – | 0.76 | 2.344 | 9.375 | 1.953 | 49.8 | IC50 (VIM-1; [11]): 8.53 nM |
| Nc1nc2cccc(-c3ccc(C(F)(F)F)c(S(N)(=O)=O)c3-c3nnn[nH]3)c2s1 [Example 553, 3-(2-amino-1,3-benzothiazol-7-yl)-2-(1H-tetrazol-5-yl)-6-(trifluoromethyl)benzenesulfonamide] | 0.0499 | 0.0624 | 3.125 | 3.125 | 3.125 | 0.959 | – | – | – | – | – | – |
| NS(=O)(=O)c1cccc(-c2cccc(S(N)(=O)=O)c2-c2nnn[nH]2)c1 [Example 118, 2-(1H-tetrazol-5-yl)-[1,1′-biphenyl]-3,3′-disulfonamide] | – | – | – | – | – | – | – | – | – | – | – | IC50 (NDM-1; [16]): 44.2 nM; IC50 (VIM-1; [17]): 492 nM; Serratia marcescens expressing IMP-1 (CL5741) MITC95 [1]: 18.75 µM; Klebsiella pneumoniae expressing VIM-1 (IHMA 599644) MITC95 [2]: 50 µM; Escherichia coli expressing NDM-1 (CLB 30016) MITC95 [3]: 0.7813 µM; IC50 (IMP-1; [16]): 1330 nM |
| NC(=O)c1cc2cccc(-c3ccc(C(F)(F)F)c(S(N)(=O)=O)c3-c3nn[nH]n3)c2[nH]1 [Example 528, 7-(3-Sulfamoyl-2-(2H-tetrazol-5-yl)-4-(trifluoromethyl)phenyl)-1H-indole-2-carboxamide] | 0.0248 | 0.146 | 3.125 | 12.5 | 1.563 | 0.425 | – | – | – | – | – | – |
| NS(=O)(=O)c1cccc(-c2ccc(CNCCc3cn[nH]c3)cc2)c1-c1nnn[nH]1 [Example 385, 4′-({[2-(1H-pyrazol-4-yl)ethyl]amino}methyl)-2-(1H-tetrazol-5-yl)biphenyl-3-sulfonamide] | – | – | – | – | – | – | 12.5 | 6.25 | 50 | 1.563 | 499 | IC50 (VIM-1; [11]): 357 nM |
| NS(=O)(=O)c1c(C(F)(F)F)ccc(-c2ccc(C3CCN(C4CC5(CCNCC5)C4)CC3)cc2)c1-c1nnn[nH]1 [Example 797, 4′-[1-(7-azaspiro[3.5]non-2-yl)piperidin-4-yl]-2-(1H-tetrazol-5-yl)-4-(trifluoromethyl)biphenyl-3-sulfonamide] | – | – | – | – | – | – | – | – | – | – | – | IC50 (NDM-1; [16]): 5.57 nM; IC50 (VIM-1; [17]): 9.92 nM; Serratia marcescens MITC95 [1, 18]: 3.125 µM; Klebsiella pneumoniae MITC95 [2, 19]: 25 µM; Escherichia coli MITC95 [3, 20]: 3.125 µM; IC50 (IMP-1; [16]): 1.51 nM |
| NC1CCC(Cc2ccc(-c3ccnc4ccccc34)c(-c3nn[nH]n3)c2S(N)(=O)=O)CC1 (stereo not drawn) [Example 451, 6-(((1s,4s)-4-aminocyclohexyl)methyl)-3-(quinolin-4-yl)-2-(2H-tetrazol-5-yl)benzenesulfonamide] | – | – | – | – | – | – | 0.977 | 3.125 | 3.125 | 1.563 | 47.1 | IC50 (VIM-1; [11]): 0.476 nM |

Reference: US9708336B2, “Metallo-beta-lactamase inhibitors” (priority 2014, dated 2017)
